Assay results from ChEMBL document CHEMBL1124733, “Synthesis and cardiac electrophysiological activity of N-substituted-4-(1H-imidazol-1-yl)benzamides--new selective class III agents” (J Med Chem, 1990).
Where “and” joins values, the source holds several entries; their conditions need not be identical. Identical values can stand only once.

What was measured:
Canis familiaris [1] = species on record: Canis familiaris; assay: Maximum observed percent change in action potential duration (APD) at 95% repolarization at 30 uM using standard microelectrode technique in isolated canine cardiac Purkinje fibers; type: functional, Canis lupus familiaris, Purkinje fiber
Canis familiaris [2] = species on record: Canis familiaris; assay: Concentration which caused a 20% increase in AP95 was determined.; Not reached; type: functional; settings: Canis lupus familiaris
[3] = Percent change in the Vmax at a 10 uM concentration of the test compound; Minimal; type: ADME
Canis familiaris [4] = species on record: Canis familiaris; assay: Percent change in action potential duration at 95% repolarization and 10 uM in isolated canine cardiac Purkinje fibres.; type: functional, Canis lupus familiaris, Purkinje fiber
[5] = Maximum observed percent change in Vmax and the concentration at which it was observed was determined at 30 uM; Minimal; type: ADME
Canis familiaris [6] = species on record: Canis familiaris; assay: Concentration which caused a 20% increase in AP95 was determined.; type: functional, Canis lupus familiaris
[7] = Maximum observed percent change in Vmax and the concentration at which it was observed was determined at 10 uM; type: ADME
[8] = Maximum observed percent change in Vmax and the concentration at which it was observed was determined at 100 uM; Minimal; type: ADME
Canis familiaris [9] = species on record: Canis familiaris; assay: Maximum observed percent change in action potential duration (APD) at 95% repolarization at 10 uM using standard microelectrode technique in isolated canine cardiac Purkinje fibers; type: functional, Canis lupus familiaris, Purkinje fiber
[10] = Maximum observed percent change in Vmax and the concentration at which it was observed was determined at M[30] uM; Minimal; type: ADME
Canis familiaris [11] = species on record: Canis familiaris; assay: Maximum observed percent change in action potential duration (APD) at 95% repolarization at 100 uM using standard microelectrode technique in isolated canine cardiac Purkinje fibers; type: functional, Canis lupus familiaris, Purkinje fiber
Canis familiaris [12] = assay: Percent change in heart rate from control at 3 mg/kg, iv; type: functional, Canis lupus familiaris
Canis familiaris [13] = assay: Number of animals in which sustained ventricular tachycardia or ventricular fibrillation was not inducible after drug administration among the number of animals tested (9) in PES efficacy model of anesthetized dog; type: functional, Canis lupus familiaris, Cardiac ventricle
Canis familiaris [14] = assay: Number of animals in which sustained ventricular tachycardia or ventricular fibrillation was not inducible after drug administration among the number of animals tested (5) in PES efficacy model of anesthetized dog; type: functional, Canis lupus familiaris, Cardiac ventricle
Canis familiaris [15] = assay: In vivo electrophysiology was given as change in Function refractory period at 10 mg/kg, id; type: functional, Canis lupus familiaris; settings: route intraduodenal
Canis familiaris [16] = assay: Percent change in heart rate from control at 30 mg/kg, id; type: functional, Canis lupus familiaris; settings: route intraduodenal
Canis familiaris [17] = assay: Effective dose with the number of animals in PES efficacy model of conscious dog; Not effective in one animal; type: functional, Canis lupus familiaris
Canis familiaris [18] = assay: Effective dose with the number of animals in PES efficacy model of anesthetized dog; Not effective in one animal; type: functional, Canis lupus familiaris
Canis familiaris [19] = assay: In vivo electrophysiology was given as change in Function refractory period at 30 mg/kg, id; type: functional, Canis lupus familiaris; settings: route intraduodenal
Canis familiaris [20] = assay: Percent change in heart rate from control at 10 mg/kg, id; type: functional, Canis lupus familiaris; settings: route intraduodenal
Canis familiaris [21] = assay: In vivo electrophysiology was given as change in Function refractory period at 3 mg/kg, iv; type: functional, Canis lupus familiaris
[22] = Maximum observed percent change in Vmax and the concentration at which it was observed was determined at 10 uM; Minimal; type: ADME
[23] = Maximum observed percent change in Vmax and the concentration at which it was observed was determined at 100 uM; type: ADME
[24] = Percent change in the Vmax at a 10 uM concentration of the test compound; type: ADME
Canis familiaris [25] = species on record: Canis familiaris; assay: Maximum observed percent change in action potential duration (APD) at 95% repolarization at 1 uM using standard microelectrode technique in isolated canine cardiac Purkinje fibers; type: functional, Canis lupus familiaris, Purkinje fiber
[26] = Maximum observed percent change in Vmax and the concentration at which it was observed was determined; Minimal; type: ADME
Canis familiaris [27] = species on record: Canis familiaris; assay: Maximum observed percent change in action potential duration (APD) at 95% repolarization at 3 uM using standard microelectrode technique in isolated canine cardiac Purkinje fibers; type: functional, Canis lupus familiaris, Purkinje fiber
Canis familiaris [28] = species on record: Canis familiaris; assay: Concentration which caused a 20% increase in AP95 was determined. Lowest and highest values given in brackets; not reached; type: functional; settings: Canis lupus familiaris
[29] = Maximum observed percent change in Vmax and the concentration at which it was observed was determined at 50 uM; Minimal; type: ADME
Canis familiaris [30] = assay: Effective dose with the number of animals in PES efficacy model of conscious dog; type: functional, Canis lupus familiaris
Canis familiaris [31] = assay: Number of animals in which sustained ventricular tachycardia or ventricular fibrillation was not inducible after drug administration among the number of animals tested (6) in PES efficacy model of anesthetized dog; type: functional, Canis lupus familiaris, Cardiac ventricle
Canis familiaris [32] = assay: Number of animals in which sustained ventricular tachycardia or ventricular fibrillation was not inducible after drug administration among the number of animals tested (4) in PES efficacy model of anesthetized dog; type: functional, Canis lupus familiaris, Cardiac ventricle
Canis familiaris [33] = assay: Effective dose with the number of animals in PES efficacy model of anesthetized dog; type: functional, Canis lupus familiaris
Canis familiaris [34] = assay: Effective dose with the number of animals in PES efficacy model of conscious dog; Not effective in two animals; type: functional, Canis lupus familiaris

O=C(NCCN(Cc1ccccc1)Cc1ccccc1)c1ccc(-n2ccnc2)cc1
Max delta APD95 (Canis familiaris [1]): 6.5%
C20 APD95 (Canis familiaris [2]): Not reached
Delta Vmax [3]: Minimal
Delta APD95 (Canis familiaris [4]): 6%
max Delta Vmax [5]: Minimal

O=C(c1ccc(-n2ccnc2)cc1)N1CCNCC1
Max delta APD95 (Canis familiaris [1]): 28%
C20 APD95 (Canis familiaris [2]): Not reached
Delta Vmax [3]: Minimal
Delta APD95 (Canis familiaris [4]): 17%
Max delta [5]: Minimal
C20 APD95 (Canis familiaris [6]): 10.5 µM

CN1CCN(S(=O)(=O)c2ccc(-n3ccnc3)cc2)CC1
Max delta APD95 (Canis familiaris [1]): 14%
max Delta Vmax [7]: -23%
C20 APD95 (Canis familiaris [2]): Not reached
Delta Vmax [3]: Minimal
Delta APD95 (Canis familiaris [4]): 9%
max Delta Vmax [8]: Minimal
C20 APD95 (Canis familiaris [6]): 39 µM
Max delta APD95 (Canis familiaris [9]): 24%

CCN(CC)CCN(Cc1ccccc1)C(=O)c1ccc(-n2ccnc2)cc1
Max delta APD95 (Canis familiaris [1]): 65%
Delta Vmax [3]: Minimal
Delta APD95 (Canis familiaris [4]): 65%
max Delta Vmax [5]: Minimal
C20 APD95 (Canis familiaris [6]): 0.5 µM

CCN(CC)CCNC(=O)c1ccc(-n2ccnc2C)cc1.CS(=O)(=O)O
C20 APD95 (Canis familiaris [2]): Not reached
Delta Vmax [3]: Minimal
Delta APD95 (Canis familiaris [4]): 4%
max Delta Vmax [8]: Minimal
max Delta Vmax [10]: Minimal
Max delta APD95 (Canis familiaris [11]): 16%
Max delta APD95 (Canis familiaris [9]): 13%

CCN(CC)CCNC(=O)c1ccc(NS(C)(=O)=O)cc1.Cl [SEMATILIDE HYDROCHLORIDE]
Max delta APD95 (Canis familiaris [1]): 51%
HR (Canis familiaris [12]): -23
No. effective (Canis familiaris [13]): 8
Delta Vmax [3]: Minimal
Delta APD95 (Canis familiaris [4]): 31%
No. effective (Canis familiaris [14]): 4
max Delta Vmax [5]: Minimal
FRP (Canis familiaris [15]): 15%
max Delta Vmax [8]: Minimal
C20 APD95 (Canis familiaris [6]): 4.4 µM
Max delta APD95 (Canis familiaris [11]): 65%
HR (Canis familiaris [16]): -17
Effective dose (Canis familiaris [17]): 10 mg/kg
Effective dose (Canis familiaris [18]): 3 mg/kg
FRP (Canis familiaris [19]): 18%
HR (Canis familiaris [20]): -17
FRP (Canis familiaris [21]): 19%

CN1CCN(C(=O)c2ccc(-n3ccnc3)cc2)CC1.Cl.Cl
Max delta APD95 (Canis familiaris [1]): 55%
Delta Vmax [3]: Minimal
Delta APD95 (Canis familiaris [4]): 32%
max Delta Vmax [22]: Minimal
max Delta Vmax [5]: Minimal
C20 APD95 (Canis familiaris [6]): 3.7 µM
Max delta APD95 (Canis familiaris [9]): 31%

CCN(CC)CCCNC(=O)c1ccc(-n2ccnc2)cc1.Cl.Cl
Max delta APD95 (Canis familiaris [1]): 48%
Delta APD95 (Canis familiaris [4]): 40%
C20 APD95 (Canis familiaris [6]): 3 µM

CCN1CCCC1CNC(=O)c1ccc(-n2ccnc2)cc1.Cc1ccc(S(=O)(=O)O)cc1 (stereo not given)
max Delta Vmax [23]: -26%
Delta APD95 (Canis familiaris [4]): 39%
max Delta Vmax [8]: Minimal
C20 APD95 (Canis familiaris [6]): 3 µM
Max delta APD95 (Canis familiaris [11]): 72%
Delta Vmax [24]: -13%

CCN(CC)CCN(C(=O)c1ccc(-n2ccnc2)cc1)c1cccc2ccccc12
C20 APD95 (Canis familiaris [2]): Not reached
Delta APD95 (Canis familiaris [4]): 28%
max Delta Vmax [5]: -31%
C20 APD95 (Canis familiaris [6]): 0.4 µM
Delta Vmax [24]: -14%
Max delta APD95 (Canis familiaris [9]): 46%
Max delta APD95 (Canis familiaris [25]): 39% and 18% and 24%

Cl.NCCNC(=O)c1ccc(-n2ccnc2)cc1
C20 APD95 (Canis familiaris [2]): Not reached
Delta Vmax [3]: Minimal
Delta APD95 (Canis familiaris [4]): 1%
Max delta APD95 (Canis familiaris [11]): 13%
Max delta APD95 (Canis familiaris [9]): 10%
max Delta Vmax [26]: Minimal

O=C(NC1CCNCC1)c1ccc(-n2ccnc2)cc1
Delta Vmax [3]: Minimal
Delta APD95 (Canis familiaris [4]): 5%
Max delta [5]: Minimal
Max delta APD95 (Canis familiaris [27]): 10%
C20 APD95 (Canis familiaris [28]): Not reached

Cl.O=C(NCCNCc1ccccc1)c1ccc(-n2ccnc2)cc1
max Delta Vmax [23]: -11%
max Delta Vmax [29]: Minimal
Delta Vmax [3]: Minimal
Delta APD95 (Canis familiaris [4]): 41%
C20 APD95 (Canis familiaris [6]): 1.2 µM
Max delta APD95 (Canis familiaris [11]): 59%
Max delta APD95 (Canis familiaris [9]): 41%

O=C(NC1CCN(Cc2ccccc2)CC1)c1ccc(-n2ccnc2)cc1
Max delta APD95 (Canis familiaris [1]): 97%
Delta Vmax [3]: Minimal
Delta APD95 (Canis familiaris [4]): 75%
max Delta Vmax [5]: Minimal
C20 APD95 (Canis familiaris [6]): 0.7 µM

CCN(CC)[C@H]1CCCCC1NC(=O)c1ccc(-n2ccnc2)cc1.Cl (stereo not given in full)
Max delta [23]: -46%
Delta Vmax [3]: Minimal
Delta APD95 (Canis familiaris [4]): 60%
C20 APD95 (Canis familiaris [6]): 1.2 µM
Max delta APD95 (Canis familiaris [11]): 85%

CCN(CC)CCNC(=O)c1cccc(-n2ccnc2)c1.Cl.Cl
Max delta APD95 (Canis familiaris [1]): 60%
Delta Vmax [3]: Minimal
Delta APD95 (Canis familiaris [4]): 27%
max Delta Vmax [5]: Minimal
max Delta Vmax [8]: Minimal
C20 APD95 (Canis familiaris [6]): 4 µM
Max delta APD95 (Canis familiaris [9]): 50%

CCN(CC)CCNC(=O)c1ccc(-n2ccnc2)cc1.Cl.Cl
Max delta APD95 (Canis familiaris [1]): 52.5%
HR (Canis familiaris [12]): -18
Delta Vmax [3]: Minimal
Effective dose (Canis familiaris [30]): 0.3 mg/kg
Delta APD95 (Canis familiaris [4]): 34%
No effective/ no. tested (Canis familiaris [31]): 4
max Delta Vmax [5]: Minimal
FRP (Canis familiaris [15]): 12%
max Delta Vmax [8]: Minimal
C20 APD95 (Canis familiaris [6]): 2.9 µM
Max delta APD95 (Canis familiaris [11]): 56%
HR (Canis familiaris [16]): -29
No. effective (Canis familiaris [32]): 3
Effective dose (Canis familiaris [33]): 1 mg/kg
Effective dose (Canis familiaris [34]): 3 mg/kg
Effective dose (Canis familiaris [18]): 10 mg/kg
FRP (Canis familiaris [19]): 19%
HR (Canis familiaris [20]): -15
FRP (Canis familiaris [21]): 13%

CCN(CC)CCNC(=O)c1ccc(-c2ncc[nH]2)cc1.Cl.Cl
max Delta Vmax [23]: -14%
Delta Vmax [3]: Minimal
Delta APD95 (Canis familiaris [4]): 7%
C20 APD95 (Canis familiaris [6]): 65 µM
Max delta APD95 (Canis familiaris [11]): 31%

CS(=O)(=O)O.O=C(c1ccc(-n2ccnc2)cc1)N1CCN(Cc2ccccc2)CC1
Delta Vmax [3]: Minimal
Delta APD95 (Canis familiaris [4]): 46%
max Delta Vmax [5]: Minimal
C20 APD95 (Canis familiaris [6]): 0.9 µM
Max delta APD95 (Canis familiaris [9]): 46%
